Measurements taken from ChEMBL document CHEMBL1629513, “Synthesis, characterization, antiamoebic activity and cytotoxicity of novel 2-(quinolin-8-yloxy) acetohydrazones and their cyclized products (1,2,3-thiadiazole and 1,2,3-selenadiazole derivatives)” (Eur J Med Chem, 2010).

How the values were obtained:
[1] = Cytotoxicity against human MCF7 cells assessed as cell viability up to 100 uM after 48 hrs by MTT assay; format: cell-based; settings: read-out: Activity
MCF7 = test: Cytotoxicity against human MCF7 cells after 48 hrs by MTT assay; format: cell-based; settings: MCF7, 48 h
Entamoeba histolytica = test: Antiamoebic activity against Entamoeba histolytica HM-1:IMSS after 72 hrs by microdilution assay; format: functional, organism-based
[2] = Cytotoxicity against human MCF7 cells assessed as cell viability at 1.56 to 50 uM after 48 hrs by MTT assay; format: cell-based; settings: read-out: Activity

Structure (SMILES)	viability at 48 h [1]	IC50 (MCF7)	IC50 (Entamoeba histolytica)	viability at 48 h, up to 50 µM [2]
Cc1ncc([N+](=O)[O-])n1CCO [METRONIDAZOLE]	100%	> 100 µM	–	–
C/C(=N\NC(=O)COc1cccc2cccnc12)c1ccccc1	100%	> 100 µM	30 nM	–
c1ccc(-c2csnn2)cc1	–	–	7460 nM	–
c1ccc(-c2csnn2)nc1	–	–	5460 nM	–
c1ccc(-c2c[se]nn2)cc1	–	–	4560 nM	–
c1coc(-c2csnn2)c1	–	95.1 µM	230 nM	–
C/C(=N\NC(=O)COc1cccc2cccnc12)c1ccco1	100%	> 100 µM	50 nM	–
c1csc(-c2csnn2)c1	–	66.9 µM	2250 nM	–
C/C(=N\NC(=O)COc1cccc2cccnc12)c1ccc(Cl)cc1	100%	> 100 µM	40 nM	–
c1ccc(-c2c[se]nn2)nc1	–	86.6 µM	460 nM	–
c1csc(-c2c[se]nn2)c1	–	–	5280 nM	–
Brc1ccc(-c2c[se]nn2)cc1	–	–	2950 nM	–
c1coc(-c2c[se]nn2)c1	–	–	5720 nM	–
Brc1ccc(-c2csnn2)cc1	68%	68.1 µM	240 nM	–
C/C(=N\NC(=O)COc1cccc2cccnc12)c1cccs1	88%	> 100 µM	80 nM	–
C/C(=N\NC(=O)COc1cccc2cccnc12)c1ccc(Br)cc1	100%	> 100 µM	40 nM	–
Clc1ccc(-c2c[se]nn2)cc1	57%	57.1 µM	580 nM	66%
C/C(=N\NC(=O)COc1cccc2cccnc12)c1ccccn1	100%	> 100 µM	50 nM	–
Clc1ccc(-c2csnn2)cc1	–	> 100 µM	390 nM	–
